# Experimental data published in PubChem BioAssay AID1259407 (Chemical Carcinogenesis Research Information System (CCRIS), 2018).
# Active and inactive are the calls of the source. The rule behind the calls is not given here.
# Tested on: CCRIS mutagenicity, Ames/micronucleus/aberration tests
# Assay: CCRIS mutagenicity studies
# [1] = Test System: AMES SALMONELLA TYPHIMURIUM, Strain/Indicator: TA98, Metabolic Activation: NONE, Method: STANDARD PLATE
# [2] = Test System: AMES SALMONELLA TYPHIMURIUM, Strain/Indicator: TA100, Metabolic Activation: NONE, Method: STANDARD PLATE
# [3] = Test System: AMES SALMONELLA TYPHIMURIUM, Strain/Indicator: TA1535, Metabolic Activation: NONE, Method: STANDARD PLATE
# [4] = Test System: AMES SALMONELLA TYPHIMURIUM, Strain/Indicator: TA1537, Metabolic Activation: NONE, Method: STANDARD PLATE
# [5] = Test System: AMES SALMONELLA TYPHIMURIUM, Strain/Indicator: TA98, Metabolic Activation: RAT, LIVER, S-9, AROCLOR 1254, Method: STANDARD PLATE
# [6] = Test System: AMES SALMONELLA TYPHIMURIUM, Strain/Indicator: TA100, Metabolic Activation: RAT, LIVER, S-9, AROCLOR 1254, Method: STANDARD PLATE
# [7] = Test System: AMES SALMONELLA TYPHIMURIUM, Strain/Indicator: TA1537, Metabolic Activation: RAT, LIVER, S-9, AROCLOR 1254, Method: STANDARD PLATE
# [8] = Test System: AMES SALMONELLA TYPHIMURIUM, Strain/Indicator: TA1535, Metabolic Activation: RAT, LIVER, S-9, AROCLOR 1254, Method: STANDARD PLATE
# [9] = Test System: AMES SALMONELLA TYPHIMURIUM, Strain/Indicator: TA1538, Metabolic Activation: RAT, LIVER, S-9, AROCLOR 1254, Method: STANDARD PLATE
# [10] = Test System: AMES SALMONELLA TYPHIMURIUM, Strain/Indicator: TA1538, Metabolic Activation: NONE, Method: STANDARD PLATE
smiles,measurement,setting,value
C/C(=C(/OCCOc1ccc(Cl)cc1)c1ccc(Cl)cc1Cl)n1ccnc1,mutagenic call,[1],inactive; negative
same,mutagenic call,"Test System: AMES SALMONELLA TYPHIMURIUM, Strain/Indicator: TA98, Metabolic Activation: RAT, LIVER, S-9, PHENOBARBITAL AND 5,6-BENZOFLAVONE, Method: STANDARD PLATE",inactive; negative
same,mutagenic call,[2],inactive; negative
same,mutagenic call,"Test System: AMES SALMONELLA TYPHIMURIUM, Strain/Indicator: TA100, Metabolic Activation: RAT, LIVER, S-9, PHENOBARBITAL AND 5,6-BENZOFLAVONE, Method: STANDARD PLATE",inactive; negative
same,mutagenic call,[3],inactive; negative
same,mutagenic call,"Test System: AMES SALMONELLA TYPHIMURIUM, Strain/Indicator: TA1535, Metabolic Activation: RAT, LIVER, S-9, PHENOBARBITAL AND 5,6-BENZOFLAVONE, Method: STANDARD PLATE",inactive; negative
same,mutagenic call,[4],inactive; negative
same,mutagenic call,"Test System: AMES SALMONELLA TYPHIMURIUM, Strain/Indicator: TA1537, Metabolic Activation: RAT, LIVER, S-9, PHENOBARBITAL AND 5,6-BENZOFLAVONE, Method: STANDARD PLATE",inactive; negative
same,mutagenic call,"Test System: E. COLI, Strain/Indicator: WP2 UVRA, Metabolic Activation: NONE, Method: STANDARD PLATE",inactive; negative
same,mutagenic call,"Test System: E. COLI, Strain/Indicator: WP2 UVRA, Metabolic Activation: RAT, LIVER, S-9, PHENOBARBITAL AND 5,6-BENZOFLAVONE, Method: STANDARD PLATE",inactive; negative
COc1ccc2oc3cc(O)cc(O)c3c(=O)c2c1,mutagenic call,"Test System: AMES SALMONELLA TYPHIMURIUM, Strain/Indicator: TA97, Metabolic Activation: RAT, LIVER, S-9, PHENOBARBITAL AND 5,6-BENZOFLAVONE, Method: PREINCUBATION",active; positive
same,mutagenic call,"Test System: AMES SALMONELLA TYPHIMURIUM, Strain/Indicator: TA98, Metabolic Activation: RAT, LIVER, S-9, PHENOBARBITAL AND 5,6-BENZOFLAVONE, Method: PREINCUBATION",active; positive
same,mutagenic call,"Test System: AMES SALMONELLA TYPHIMURIUM, Strain/Indicator: TA100, Metabolic Activation: RAT, LIVER, S-9, PHENOBARBITAL AND 5,6-BENZOFLAVONE, Method: PREINCUBATION",active; positive
same,mutagenic call,"Test System: AMES SALMONELLA TYPHIMURIUM, Strain/Indicator: TA2637, Metabolic Activation: RAT, LIVER, S-9, PHENOBARBITAL AND 5,6-BENZOFLAVONE, Method: PREINCUBATION",active; positive
CN(CCCC(=O)O)N=O,mutagenic call,"Test System: AMES SALMONELLA TYPHIMURIUM, Strain/Indicator: TA1535, Metabolic Activation: RAT, LIVER, S-9, KC500 OR PHENOBARBITAL, Method: LIQUID SUSPENSION",active; positive
Nc1nc(N)c(-c2ccccc2)s1,mutagenic call,"Test System: MOUSE LYMPHOMA, Strain/Indicator: L5178Y (TK+/TK-), Metabolic Activation: NONE, Method: SUSPENSION/PLATE",active; positive. reevaluation of results: inconclusive
same,mutagenic call,"Test System: MOUSE LYMPHOMA, Strain/Indicator: L5178Y (TK+/TK-), Metabolic Activation: RAT, LIVER, S-9, AROCLOR 1254, Method: SUSPENSION/PLATE",active; positive. reevaluation of results: inconclusive
C1COCCOCCOCCOCCOCCOCCO1,mutagenic call,[1],inactive; negative
same,mutagenic call,[5],inactive; negative
same,mutagenic call,[2],inactive; negative
same,mutagenic call,[6],inactive; negative
same,mutagenic call,"Test System: AMES SALMONELLA TYPHIMURIUM, Strain/Indicator: TA1530, Metabolic Activation: NONE, Method: STANDARD PLATE",inactive; negative
same,mutagenic call,"Test System: AMES SALMONELLA TYPHIMURIUM, Strain/Indicator: TA1530, Metabolic Activation: RAT, LIVER, S-9, AROCLOR 1254, Method: STANDARD PLATE",inactive; negative
same,mutagenic call,[4],inactive; negative
same,mutagenic call,[7],inactive; negative
O=C1c2c(O)ccc(O)c2C(=O)C2C(O)=CC=C(O)C12 (configuration not stated),mutagenic call,[1],inactive; negative
same,mutagenic call,[5],inactive; negative
same,mutagenic call,[2],inactive; negative
same,mutagenic call,[6],inactive; negative
same,mutagenic call,[3],inactive; negative
same,mutagenic call,[8],inactive; negative
same,mutagenic call,[4],active; positive
same,mutagenic call,[9],inactive; negative
C=C(C)C(=O)OC(C)(C)C,mutagenic call,[1],inactive; negative
same,mutagenic call,[5],inactive; negative
same,mutagenic call,"Test System: AMES SALMONELLA TYPHIMURIUM, Strain/Indicator: TA98, Metabolic Activation: RAT, LIVER, S-9, SODIUM PHENOBARBITAL, Method: STANDARD PLATE",inactive; negative
same,mutagenic call,[2],inactive; negative
same,mutagenic call,[6],inactive; negative
same,mutagenic call,"Test System: AMES SALMONELLA TYPHIMURIUM, Strain/Indicator: TA100, Metabolic Activation: RAT, LIVER, S-9, SODIUM PHENOBARBITAL, Method: STANDARD PLATE",inactive; negative
same,mutagenic call,[3],inactive; negative
same,mutagenic call,[8],inactive; negative
same,mutagenic call,"Test System: AMES SALMONELLA TYPHIMURIUM, Strain/Indicator: TA1535, Metabolic Activation: RAT, LIVER, S-9, SODIUM PHENOBARBITAL, Method: STANDARD PLATE",inactive; negative
same,mutagenic call,[4],inactive; negative
same,mutagenic call,[7],inactive; negative
same,mutagenic call,"Test System: AMES SALMONELLA TYPHIMURIUM, Strain/Indicator: TA1537, Metabolic Activation: RAT, LIVER, S-9, SODIUM PHENOBARBITAL, Method: STANDARD PLATE",inactive; negative
same,mutagenic call,[10],inactive; negative
same,mutagenic call,[9],inactive; negative
same,mutagenic call,"Test System: AMES SALMONELLA TYPHIMURIUM, Strain/Indicator: TA1538, Metabolic Activation: RAT, LIVER, S-9, SODIUM PHENOBARBITAL, Method: STANDARD PLATE",inactive; negative
Cc1c2c(c(C)c3c1ccc1ccccc13)[C@@H]1OC1[C@@H](O)[C@@H]2O (some centres not stated),mutagenic call,"Test System: CHINESE HAMSTER V-79, Strain/Indicator: V-79/OUABAIN, Metabolic Activation: CELL-MEDIATED, Method: STANDARD PLATE",active; positive
O=C(O)c1cc(Cl)ccc1O,mutagenic call,[10],inactive; negative
same,mutagenic call,"Test System: AMES SALMONELLA TYPHIMURIUM, Strain/Indicator: TA1538, Metabolic Activation: RAT,LIVER, S-9, AROCLOR 1254, Method: STANDARD PLATE",inactive; negative
N=C(N)c1ccc2c(N)c(C(=N)N)[nH]c2c1,mutagenic call,[1],inactive; negative
same,mutagenic call,"Test System: AMES SALMONELLA TYPHIMURIUM, Strain/Indicator: TA98, Metabolic Activation: RAT, LIVER, S-9, PHENOBARBITAL, Method: STANDARD PLATE",inactive; negative
same,mutagenic call,[2],inactive; negative
same,mutagenic call,"Test System: AMES SALMONELLA TYPHIMURIUM, Strain/Indicator: TA100, Metabolic Activation: RAT, LIVER, S-9, PHENOBARBITAL, Method: STANDARD PLATE",inactive; negative
[O-][n+]1cccc2c1[C@H]1O[C@H]1C=C2,mutagenic call,[2],inactive; negative
same,mutagenic call,"Test System: AMES SALMONELLA TYPHIMURIUM, Strain/Indicator: TA100, Metabolic Activation: RAT, LIVER, S-9, AROCLOR 1254 (10 OR 20%), Method: STANDARD PLATE",inactive; negative
